# Measurements taken from patent publication US5795885A, “Method of inhibiting profileration of cells by administering an aminosterol compound” (priority 1995, dated 1998).
# Experiments:
# [1] = tested on: stage 59-60 Xenopus tadpoles; conditions: for tadpole response similar to compound 1437 / tadpole response similar to Fraction 1 / tadpole response similar to compound 1436 / tadpole response similar to FX 3: tadpole assay
# [2] = tested on: chick embryo vitelline capillaries; assay: chick embryo vitelline capillary regression assay; assay type: in vivo; design: key to vitelline capillary regression: +: Vascular reactivity; 0: No vascular reactivity; +/-: Equivocal reactivity; conditions: for vitelline capillary regression: 60 minutes
# Procedure: Using the chick embryo vitelline capillaries assay, compounds were tested for their ability to induce capillary regression. Each compound was applied in 0.1 ml of 15% Ficol 400 and PBS onto the embryo, and vascular regression was assessed after 60 minutes.
# The 3-day chick embryo consists of an embryonic disc from which numerous vessels emerge and return, forming a "figure 8"-shaped structure--the embryo in the center with vascular loops extending outward over both poles. […] Following a lag period of around 15 minutes, the constriction of continuity between capillary and secondary vessels, generally on the "venous" side, was observed. Continued pulsatile blood flow progressed, resulting in a "swelling" of the blind tube, followed by a pinching off of the remaining connection and formation of an enclosed vascular sac resembling a "blood island." This process progressed until only the largest vessels remained intact.
# P. aerug = assay: antibiotic activity (MIC); assay type: cell-based
smiles,measurement,setting,value
COC(=O)CC[C@@H](C)[C@H]1CC[C@H]2[C@@H]3C[C@@H](O)[C@H]4C[C@@H](NCCN)CC[C@]4(C)[C@H]3CC[C@]12C [Compound 432],tadpole response similar to compound 1437,[1],functionally similar to compound 1437
C[C@H](CCC(=O)O)[C@H]1CC[C@H]2[C@@H]3CC[C@H]4C[C@H](NCCCNCCCCN)CC[C@]4(C)[C@H]3CC[C@]12C [Compound 318],vitelline capillary regression,[2]; 1 μg applied,0
COC(=O)CCC(C)[C@H]1CCC2C3C(CC[C@@]21C)[C@@]1(C)CC[C@H](NCCN)C[C@H]1C[C@H]3O (some centres unmarked),MIC,P. aerug,128 µg/mL
CC(CCC(=O)O)[C@H]1CCC2C3C[C@@H](O)[C@H]4C[C@@H](NCCN)CC[C@]4(C)C3CC[C@@]21C (some centres unmarked),MIC,P. aerug,128 µg/mL
CC(CCC(=O)O)[C@H]1CCC2C3C(CC[C@@]21C)[C@@]1(C)CC[C@@H](NCCN)C[C@H]1C[C@H]3O (some centres unmarked),MIC,P. aerug,64 µg/mL
CC(C)CCC[C@@H](C)[C@H]1CC[C@H]2[C@@H]3CC[C@H]4C[C@@H](NCCCNCCCCN)CC[C@]4(C)[C@H]3CC[C@]12C [Compound 303],vitelline capillary regression,[2]; 1 μg applied,0
CC(C)C(CCC(C)C1CCC2C3C(O)CC4CC(NCCCNCCCCN)CCC4(C)C3CCC12C)OS(=O)(=O)O (centres unmarked),Tadpole: GI (gastrointestinal),[1]; 10 μg/mL,-
same,Tadpole: M (melanocytes),[1]; 10 μg/mL,-
same,Tadpole: Mus (muscle),[1]; 10 μg/mL,-
same,Tadpole: V (vascular),[1]; 10 μg/mL,+
CC(C)CCCC(C)[C@H]1CCC2C3C(CC[C@@]21C)[C@@]1(C)CC[C@@H](NCCCNCCCCN)C[C@@H]1C[C@H]3O (some centres unmarked),MIC,P. aerug,64 µg/mL
C[C@H](CCC(=O)O)[C@H]1CC[C@H]2[C@@H]3[C@H](O)C[C@@H]4C[C@H](NCCN)CC[C@]4(C)[C@H]3CC[C@]12C [Compound 414],tadpole response similar to Fraction 1,[1],pharmacologic activity similar to Fraction 1
same,vitelline capillary regression,[2]; 1 μg applied,0
COC(=O)CCC(C)[C@H]1CCC2C3C[C@@H](O)[C@H]4C[C@H](NCCCNCCCCNCCCN)CC[C@]4(C)C3CC[C@@]21C (some centres unmarked),MIC,P. aerug,128 µg/mL
CC(C)CCC[C@@H](C)[C@H]1CC[C@H]2[C@@H]3[C@H](O)C[C@H]4C[C@@H](N)CC[C@]4(C)[C@H]3CC[C@]12C [Compound 1364],vitelline capillary regression,[2]; 0.001 μg applied,0
same,vitelline capillary regression,[2]; 0.01 μg applied,0
same,vitelline capillary regression,[2]; 0.1 μg applied,0
same,vitelline capillary regression,[2]; 1 μg applied,+
same,vitelline capillary regression,[2]; 10 μg applied,+
CC(C)CCC[C@@H](C)[C@H]1CC[C@H]2[C@@H]3[C@H](O)C[C@H]4C[C@@H](NCCCNCCCCN)CC[C@]4(C)[C@H]3CC[C@]12C [Compound 371],tadpole response similar to compound 1436,[1],produce effects like those produced by compound 1436
same,vitelline capillary regression,[2]; 0.001 μg applied,0
same,vitelline capillary regression,[2]; 0.01 μg applied,0
same,vitelline capillary regression,[2]; 0.1 μg applied,0
same,vitelline capillary regression,[2]; 1 μg applied,+/-
same,vitelline capillary regression,[2]; 10 μg applied,+
CC(CCC(=O)O)[C@H]1CCC2C3CC[C@@H]4C[C@H](NCCN)CC[C@]4(C)C3C[C@H](O)[C@@]21C (some centres unmarked),MIC,P. aerug,128 µg/mL
COC(=O)CCC(C)[C@H]1CCC2C3C[C@@H](O)[C@H]4C[C@@H](NCCCNCCCCNCCCN)CC[C@]4(C)C3CC[C@@]21C (some centres unmarked),MIC,P. aerug,32 µg/mL
CC(CCC(=O)O)[C@H]1CCC2C3C(CC[C@@]21C)[C@@]1(C)CC[C@H](NCCN)C[C@H]1C[C@H]3O (some centres unmarked),MIC,P. aerug,256 µg/mL
CC(C)CCCC(C)[C@H]1CCC2C3C(CC[C@@]21C)[C@@]1(C)CC[C@H](N)C[C@@H]1C[C@H]3O (some centres unmarked),MIC,P. aerug,> 256 µg/mL
COC(=O)CCC(C)[C@H]1CCC2C3CC[C@H]4C[C@H](NCCCNCCCCNCCCN)CC[C@]4(C)C3CC[C@@]21C (some centres unmarked) [drawing 74],MIC,P. aerug,64 µg/mL
COC(=O)CC[C@@H](C)[C@H]1CC[C@H]2[C@@H]3CC[C@H]4C[C@H](NCCCNCCCCNCCCN)CC[C@]4(C)[C@H]3CC[C@]12C [Compound 458],tadpole response similar to FX 3,[1],exhibiting pharmacologic activity similar to that seen for FX 3
COC(=O)CCC(C)[C@H]1CCC2C3CC[C@@H]4C[C@H](NCCN)CC[C@]4(C)C3C[C@H](O)[C@@]21C (some centres unmarked),MIC,P. aerug,16 to 32 µg/mL
COC(=O)CC[C@@H](C)[C@H]1CC[C@H]2[C@@H]3C[C@@H](O)[C@H]4C[C@@H](NCCCNCCCCNCCCN)CC[C@]4(C)[C@H]3CC[C@]12C [Compound 466],tadpole response similar to FX 3,[1],exhibiting pharmacologic activity similar to that seen for FX 3
COC(=O)CCC(C)[C@H]1CCC2C3CC[C@@H]4C[C@H](NCCCNCCCCNCCCN)CC[C@]4(C)C3C[C@H](O)[C@@]21C (some centres unmarked),MIC,P. aerug,8 µg/mL
COC(=O)CC[C@@H](C)[C@H]1CC[C@H]2[C@@H]3[C@H](O)C[C@H]4C[C@@H](NCCCNCCCCNCCCN)CC[C@]4(C)[C@H]3CC[C@]12C [Compound 396],vitelline capillary regression,[2]; 1 μg applied,+
CC(COS(=O)(=O)O)C(=O)CC[C@@H](C)[C@H]1CC[C@H]2[C@@H]3[C@H](O)C[C@H]4C[C@@H](NCCCNCCCCN)CC[C@]4(C)[C@H]3CC[C@]12C (some centres unmarked),MIC,P. aerug,128 µg/mL
CC(C)CCCC(C)[C@H]1CCC2C3C(CC[C@@]21C)[C@@]1(C)CC[C@H](NCCCNCCCCN)C[C@@H]1C[C@H]3O (some centres unmarked),MIC,P. aerug,64 µg/mL
COC(=O)CC[C@@H](C)[C@H]1CC[C@H]2[C@@H]3C[C@@H](O)[C@H]4C[C@H](NCCCNCCCCNCCCN)CC[C@]4(C)[C@H]3CC[C@]12C [Compound 465],tadpole response similar to FX 3,[1],exhibiting pharmacologic activity similar to that seen for FX 3
COC(=O)CC[C@@H](C)[C@H]1CC[C@H]2[C@@H]3[C@H](O)C[C@@H]4C[C@H](NCCN)CC[C@]4(C)[C@H]3CC[C@]12C [Compound 410],tadpole response similar to compound 1437,[1],functionally similar to compound 1437
same,vitelline capillary regression,[2]; 0.001 μg applied,0
same,vitelline capillary regression,[2]; 0.01 μg applied,+/-
same,vitelline capillary regression,[2]; 0.1 μg applied,+/-
same,vitelline capillary regression,[2]; 1 μg applied,+
COC(=O)CC[C@@H](C)[C@H]1CC[C@H]2[C@@H]3[C@H](O)C[C@@H]4C[C@@H](NCCN)CC[C@]4(C)[C@H]3CC[C@]12C [Compound 409],tadpole response similar to compound 1437,[1],functionally similar to compound 1437
same,vitelline capillary regression,[2]; 1 μg applied,0
COC(=O)CCC(C)[C@H]1CCC2C3CC[C@H]4C[C@@H](NCCCNCCCCNCCCN)CC[C@]4(C)C3CC[C@@]21C (some centres unmarked),MIC,P. aerug,64 µg/mL
COC(=O)CCC(C)[C@H]1CCC2C3C[C@@H](O)[C@H]4C[C@@H](NCCN)CC[C@]4(C)C3CC[C@@]21C (some centres unmarked),MIC,P. aerug,64 µg/mL
CC(C)CCC[C@@H](C)[C@H]1CC[C@H]2[C@@H]3CC[C@H]4C[C@@H](NCCCCN)CC[C@]4(C)[C@H]3CC[C@]12C,MIC,P. aerug,> 256 µg/mL
C[C@H](CCC(=O)O)[C@H]1CC[C@H]2[C@@H]3[C@H](O)C[C@@H]4C[C@H](NCCCNCCCCNCCCN)CC[C@]4(C)[C@H]3CC[C@]12C [Compound 412],tadpole response similar to FX 3,[1],exhibiting pharmacologic activity similar to that seen for FX 3
same,vitelline capillary regression,[2]; 0.001 μg applied,0
same,vitelline capillary regression,[2]; 0.01 μg applied,0
same,vitelline capillary regression,[2]; 0.1 μg applied,0
same,vitelline capillary regression,[2]; 1 μg applied,+
CC(CCC(=O)O)[C@H]1CCC2C3CC[C@@H]4C[C@H](NCCCNCCCCNCCCN)CC[C@]4(C)C3C[C@H](O)[C@@]21C (some centres unmarked),MIC,P. aerug,4 µg/mL
C[C@H](CCC(=O)O)[C@H]1CC[C@H]2[C@@H]3[C@H](O)C[C@H]4C[C@H](NCCCNCCCCN)CC[C@]4(C)[C@H]3CC[C@]12C [Compound 382],vitelline capillary regression,[2]; 0.001 μg applied,0
same,vitelline capillary regression,[2]; 0.01 μg applied,0
same,vitelline capillary regression,[2]; 0.1 μg applied,0
same,vitelline capillary regression,[2]; 1 μg applied,+
same,vitelline capillary regression,[2]; 10 μg applied,+
COC(=O)CC[C@@H](C)[C@H]1CC[C@H]2[C@@H]3C[C@@H](O)[C@H]4C[C@H](NCCN)CC[C@]4(C)[C@H]3CC[C@]12C [Compound 431],tadpole response similar to compound 1437,[1],functionally similar to compound 1437
C[C@H](CCC(=O)O)[C@H]1CC[C@H]2[C@@H]3C[C@@H](O)[C@H]4C[C@@H](NCCN)CC[C@]4(C)[C@H]3CC[C@]12C [Compound 433],tadpole response similar to compound 1437,[1],functionally similar to compound 1437
COC(=O)CC[C@@H](C)[C@H]1CC[C@H]2[C@@H]3CC[C@H]4C[C@@H](NCCCNCCCCNCCCN)CC[C@]4(C)[C@H]3CC[C@]12C [Compound 459],tadpole response similar to FX 3,[1],exhibiting pharmacologic activity similar to that seen for FX 3
C[C@H](CCC(=O)O)[C@H]1CC[C@H]2[C@@H]3[C@H](O)C[C@@H]4C[C@@H](NCCN)CC[C@]4(C)[C@H]3CC[C@]12C [Compound 415],vitelline capillary regression,[2]; 0.001 μg applied,0
same,vitelline capillary regression,[2]; 0.01 μg applied,+
same,vitelline capillary regression,[2]; 0.1 μg applied,+
same,vitelline capillary regression,[2]; 1 μg applied,+
same,activity in vitelline capillary regression assay (in words),[2]; in vivo,especially active
C[C@H](CCC(=O)O)[C@H]1CC[C@H]2[C@@H]3[C@H](O)C[C@H]4C[C@@H](NCCCNCCCCN)CC[C@]4(C)[C@H]3CC[C@]12C [Compound 381],vitelline capillary regression,[2]; 1 μg applied,0
CC(C)CCC[C@@H](C)[C@H]1CC[C@H]2[C@@H]3[C@H](O)C[C@H]4C[C@H](NCCCNCCCCN)CC[C@]4(C)[C@H]3CC[C@]12C [Compound 370],tadpole response similar to FX 3,[1],exhibiting pharmacologic activity similar to that seen for FX 3
C[C@H](CCC(=O)O)[C@H]1CC[C@H]2[C@@H]3[C@H](O)C[C@@H]4C[C@@H](NCCCNCCCCNCCCN)CC[C@]4(C)[C@H]3CC[C@]12C [Compound 413],tadpole response similar to compound 1436,[1],produce effects like those produced by compound 1436
same,vitelline capillary regression,[2]; 1 μg applied,0
CC(C)C(CCC(C)C1CCC2C3C(O)CC4CC(NCCCNCCCCNCCCN)CCC4(C)C3CCC12C)OS(=O)(=O)O (centres unmarked),Tadpole: E (epithelial),[1]; 10 μg/mL,±
same,Tadpole: M (melanocytes),[1]; 10 μg/mL,+
same,Tadpole: Mus (muscle),[1]; 10 μg/mL,-
same,Tadpole: V (vascular),[1]; 10 μg/mL,+
COC(=O)CC[C@@H](C)[C@H]1CC[C@H]2[C@@H]3CC[C@@H]4C[C@H](NCCN)CC[C@]4(C)[C@H]3C[C@H](O)[C@]12C [Compound 416],tadpole response similar to compound 1437,[1],functionally similar to compound 1437
CC(C)CCC[C@@H](C)[C@H]1CC[C@H]2[C@@H]3[C@H](O)C[C@H]4C[C@H](N)CC[C@]4(C)[C@H]3CC[C@]12C [Compound 1363],tadpole response similar to Fraction 1,[1],pharmacologic activity similar to Fraction 1
